Like-named read-outs stand apart in the source and are kept apart here.
What was measured:
Kunming mice [1] = test: Acute toxicity / median lethal dose (LD50) determination, subcutaneous injection; assay type: in vivo; design: key to Acute toxicity: if death occurred, (+) represented as positive; if no death occurred, (−) represented as negative; details: mice administered 20 mg/kg subcutaneously, presence of death within 24 h
Method: (§1) The experimental animals were Kunming mice (male:female=1:1), weighed 22+2 g, which were provided by Chengdu dossy experimental animals Co., ltd., China. The mice were kept in the animal room of the School of Life Science and Engineering, Southwest Jiaotong University, where the animal room was set at a temperature of 23±2° C., a humidity of […] and a photoperiod of 16:8 h (L:D). Before the experiment, the mice were freely fed for 2-3 days with water and feed to adapt to the new environment. Then, the mice were treated by water and food fasting for 12 h. 10 animals were allocated to each group to ensure that there are at least 6 sets of valid data in each group. The animal experiments were carried out in strict accordance with the national regulations on the management of experimental animals.
(§2) The compounds prepared in the examples provided herein (test sample set) and bulleyaconitine A (positive control set) were all dissolved with 0.1 mol/L HCl according to a molar ratio of 1:1, and then diluted with physiological saline to a concentration to be determined. Blank control was physiological saline containing 0.1 mol/L HCl. The animals in the control groups were subjected to the same treatment as those in experimental groups except that samples to be test were replaced with physiological saline.
(2) Median Lethal Dose (LD50) Determination
The sample to be tested was dissolved with 0.1 mol/L HCl according to the amount of the substance ratio of 1:1, and diluted with physiological saline according to the required concentration. 10 mice in each group were randomly selected, half of which were male and half of which were female, and were placed in independent cages. Each mouse was injected subcutaneously with different sample solutions to be tested according to a dose of 0.1 mL/10 g body weight. In the preliminary toxicity experiment, the measured concentration was 20 mg/kg, and then based on the survival rate of the experimental animals in the preliminary experiment, the sample to be tested was set to at least 5 groups with different concentration dose according to the proportional series. The survival rate of mice within 24 h was recorded. The obtained dose-survival rate data was input into the SPSS software (version 17.2), and the LD50 of the sample was calculated according to the Probit regression method.

Kunming mice [2] = test: Analgesic activity by acetic acid-induced writhing method (writhing inhibition rate, ED50); assay type: in vivo; details: Mus musculus, sc, read-out: Analgesia rate (%) ± SEM
Method: as §1, §2
(1) Determination of Analgesic Activity Through an Acetic Acid-Induced Writhing Method
10 mice were randomly selected, male:female=1:1, were placed in independent cages. Each mouse was injected subcutaneously with the sample solution mentioned above at a dose of 0.1 mL/10 g body weight. After 15 min, a 0.7% acetic acid solution was intraperitoneally injected. A number of writhing reactions in each mouse within 15 minutes was recorded. The group that the mice were injected with physiological saline subcutaneously was the blank group; the group that the mice were injected with the sample to be tested was the experimental group; and the group that the mice were injected with bulleyaconitine A was the positive group. The analgesic activity was represented by a percentage of the reduced number of writhing compared to the blank group (writhing inhibition rate), which were specifically as follows: writhing inhibition rate (analgesic activity)=(average number of writhing times in the blank group-average number of writhing times in the experimental group)/average number of writhing times in the blank group×100%.
Median Effective Dose (ED50) Determination
The sample to be tested was dissolved with 0.1 mol/L HCl according to the amount of the substance ratio of 1:1, and diluted with physiological saline according to the proportional series to obtain at least 5 groups with different dose concentrations. The writhing inhibition rate of each dose group was tested according to the acetic acid-induced writhing method mentioned above. The obtained dose-writhing inhibition data was entered into the statistical product and service solutions (SPSS) software (version 17.2), and the ED50 of the sample to be tested was calculated through the Probit regression method.

SMILES | Acute toxicity (Kunming mice [1]) | inhibition in vivo at 0.05 mg/kg (Kunming mice [2]) | inhibition in vivo at 0.05 mg/kg (Kunming mice [2]; dosing concentration 0.05 mg/kg, subcutaneous, acetic acid-induced writhing, mice)
CCOc1ccc(C(=O)O[C@@H]2C3C4C[C@]2(OC(=O)c2ccc(OCC)cc2)[C@@H](OC)C[C@]3(OCC)C2[C@H](OC)C3[C@@]5(COC)CC[C@H](OC)[C@@]43[C@@H]2N(CC)C5)cc1 (some centres unmarked) [Compound 35] | − | 0% | 
CCO[C@]12C[C@H](OC)[C@@]3(OC(=O)c4ccc(Cl)cc4Cl)CC(C1[C@H]3OC(=O)c1ccc(Cl)cc1Cl)[C@]13C4[C@@H](OC)C2[C@H]1N(CC)C[C@]4(COC)CC[C@@H]3OC (some centres unmarked) [Compound 73] | − | 33.5 ± 2.7% | 
CCO[C@]12C[C@H](OC)[C@@]3(OC(=O)c4cccc(OC)c4)CC(C1[C@H]3OC(=O)c1cccc(OC)c1)[C@]13C4[C@@H](OC)C2[C@H]1N(CC)C[C@]4(COC)CC[C@@H]3OC (some centres unmarked) [Compound 76] | − | 0% | 
CCO[C@]12C[C@H](OC)[C@@]3(OC(=O)c4ccncc4)CC(C1[C@H]3OC(=O)c1ccncc1)[C@]13C4[C@@H](OC)C2[C@H]1N(CC)C[C@]4(COC)CC[C@@H]3OC (some centres unmarked) [Compound 49] | − | 13.7 ± 1% | 
CCO[C@]12C[C@H](OC)[C@@]3(OC(=O)c4ccc(Cl)s4)CC(C1[C@H]3OC(=O)c1ccc(Cl)s1)[C@]13C4[C@@H](OC)C2[C@H]1N(CC)C[C@]4(COC)CC[C@@H]3OC (some centres unmarked) [Compound 18] | − | 13.4 ± 0.6% | 
CCN1C[C@]2(COC)CC[C@H](OC)[C@@]34C5C[C@]6(OC(=O)c7ccccc7)[C@@H](OC)C[C@@](OC)(C5[C@H]6OC(=O)c5ccccc5)C([C@H](OC)C23)[C@@H]14 (some centres unmarked) [Compound 55] | − | 11.7 ± 1.6% | 
CCO[C@]12C[C@H](OC)[C@@]3(OC(=O)c4ccc(C)cc4)CC(C1[C@H]3OC(=O)c1ccc(OC)cc1)[C@]13C4[C@@H](OC)C2[C@H]1N(CC)C[C@]4(COC)CC[C@@H]3OC (some centres unmarked) [Compound 57] | − | 5.39 ± 2% | 
CCO[C@]12C[C@H](OC)[C@@]3(OC(C)=O)CC(C1[C@H]3OC(=O)c1ccc(OC)cc1)[C@]13C4[C@@H](OC)C2[C@H]1N(CC)C[C@]4(COC)CC[C@@H]3OC (some centres unmarked) [Compound 42] | − | 23 ± 1.7% | 
CCO[C@]12C[C@H](OC)[C@@]3(OC(=O)C4CC4)CC(C1[C@H]3OC(=O)c1ccc(OC)cc1)[C@]13C4[C@@H](OC)C2[C@H]1N(CC)C[C@]4(COC)CC[C@@H]3OC (some centres unmarked) [Compound 16] | − | 36.7 ± 1.2% | 
C/C=C/C(=O)O[C@@H]1C2C3C[C@]1(OC(=O)/C=C/C)[C@@H](OC)C[C@]2(OCC)C1[C@H](OC)C2[C@@]4(COC)CC[C@H](OC)[C@@]32[C@@H]1N(CC)C4 (some centres unmarked) [Compound 85] | − | 22.4 ± 3.3% | 
CCO[C@]12C[C@H](OC)[C@@]3(OC(=O)c4cc(F)cc(F)c4)CC(C1[C@H]3OC(=O)c1cc(F)cc(F)c1)[C@]13C4[C@@H](OC)C2[C@H]1N(CC)C[C@]4(COC)CC[C@@H]3OC (some centres unmarked) [Compound 74] | − | 23.9 ± 2.8% | 
CCN1C[C@]2(COC)CC[C@H](OC)[C@@]34C5C[C@]6(OC(=O)c7ccco7)[C@@H](OC)C[C@@](OC)(C5[C@H]6OC(=O)c5ccc(OC)cc5)C([C@H](OC)C23)[C@@H]14 (some centres unmarked) [Compound 33] | − | 30.2 ± 2.6% | 
CCO[C@]12C[C@H](OC)[C@@]3(OC(=O)C4CC4)CC(C1[C@H]3OC(=O)C1CC1)[C@]13C4[C@@H](OC)C2[C@H]1N(CC)C[C@]4(COC)CC[C@@H]3OC (some centres unmarked) [Compound 8] | − | 37.1 ± 1.2% | 
CCN1C[C@]2(COC)CC[C@H](OC)[C@@]34C5C[C@]6(OC(=O)c7ccncc7)[C@@H](OC)C[C@@](OC(C)=O)(C5[C@H]6OC(=O)c5ccc(OC)cc5)C([C@H](OC)C23)[C@@H]14 (some centres unmarked) [Compound 51] | − | 32.6 ± 1.7% | 
CCN1C[C@]2(COC)CC[C@H](OC)[C@@]34C5C[C@]6(OC(=O)c7ccc(F)cc7)[C@@H](OC)C[C@@](OC(C)=O)(C5[C@H]6OC(=O)c5ccc(OC)cc5)C([C@H](OC)C23)[C@@H]14 (some centres unmarked) [Compound 61] | − | 34 ± 1.9% | 
CCN1C[C@]2(COC)CC[C@H](OC)[C@@]34C5C[C@]6(OC(=O)C7CCOCC7)[C@@H](OC)C[C@@](OC)(C5[C@H]6OC(=O)C5CCOCC5)C([C@H](OC)C23)[C@@H]14 (some centres unmarked) [Compound 26] | − | 30.5 ± 1% | 
CCO[C@]12C[C@H](OC)[C@@]3(OC(=O)c4ccc(C(F)(F)F)cc4)CC(C1[C@H]3OC(=O)c1ccc(OC)cc1)[C@]13C4[C@@H](OC)C2[C@H]1N(CC)C[C@]4(COC)CC[C@@H]3OC (some centres unmarked) [Compound 47] | − | 33.8 ± 2.2% | 
CCO[C@]12C[C@H](OC)[C@@]3(O)CC(C1[C@H]3O)[C@]13C4[C@@H](OC)C2[C@H]1N(CC)C[C@]4(COC)CC[C@@H]3OC (some centres unmarked) [Compound 4] | − | 5.63 ± 1.1% | 
CCO[C@]12C[C@H](OC)[C@@]3(OC(=O)CC(C)(C)C)CC(C1[C@H]3OC(=O)c1ccc(OC)cc1)[C@@]13C4[C@@H]2[C@H](OC)C1[C@@](COC)(CC[C@@H]3OC)CN4CC (some centres unmarked) [Compound 89] | − |  | 33.7 ± 2.4%
CCN1C[C@]2(COC)CC[C@H](OC)[C@@]34C5C[C@]6(OC(C)=O)[C@@H](OC)C[C@@](OC(C)=O)(C5[C@H]6OC(=O)c5ccc(OC)cc5)C([C@H](OC)C23)[C@@H]14 (some centres unmarked) [Compound 43] | − | 4.92 ± 1.5% | 
CCO[C@]12C[C@H](OC)[C@@]3(OC(=O)C(C)C)CC(C1[C@H]3OC(=O)C(C)C)[C@]13C4[C@@H](OC)C2[C@H]1N(CC)C[C@]4(COC)CC[C@@H]3OC (some centres unmarked) [Compound 80] | − | 19.1 ± 2.1% | 
CCO[C@]12C[C@H](OC)[C@@]3(OC(=O)c4ccc(Br)cc4)CC(C1[C@H]3OC(=O)c1ccc(OC)cc1)[C@]13C4[C@@H](OC)C2[C@H]1N(CC)C[C@]4(COC)CC[C@@H]3OC (some centres unmarked) [Compound 91] | − | 31.4 ± 1.5% | 
CCN1C[C@]2(COC)CC[C@H](OC)[C@@]34C5C[C@]6(OC(C)=O)[C@@H](OC)C[C@@](OC)(C5[C@H]6OC(=O)c5ccc(OC)cc5)C([C@H](OC)C23)[C@@H]14 (some centres unmarked) [Compound 45] | − | 21.6 ± 1.3% | 
CCO[C@]12C[C@H](OC)[C@@]3(OC(=O)c4ccc(Cl)cc4)CC(C1[C@H]3OC(=O)c1ccc(Cl)cc1)[C@]13C4[C@@H](OC)C2[C@H]1N(CC)C[C@]4(COC)CC[C@@H]3OC (some centres unmarked) [Compound 65] | − | 32.3 ± 1.7% | 
CCO[C@]12C[C@H](OC)[C@@]3(OC(=O)C(C)Cl)CC(C1[C@H]3OC(=O)C(C)Cl)[C@]13C4[C@@H](OC)C2[C@H]1N(CC)C[C@]4(COC)CC[C@@H]3OC (some centres unmarked) [Compound 7] | − | 22.8 ± 3.3% | 
CCOc1ccc(C(=O)O[C@]23CC4C([C@H]2OC(=O)c2ccc(OC)cc2)[C@](OCC)(C[C@@H]3OC)C2[C@H](OC)C3[C@@]5(COC)CC[C@H](OC)[C@@]43[C@@H]2N(CC)C5)cc1 (some centres unmarked) [Compound 36] | − | 13.6 ± 2.5% | 
CCOc1ccc(C(=O)O[C@]23CC4C([C@H]2OC(=O)c2ccc(OC)cc2)[C@](OC(C)=O)(C[C@@H]3OC)C2[C@H](OC)C3[C@@]5(COC)CC[C@H](OC)[C@@]43[C@@H]2N(CC)C5)cc1 (some centres unmarked) [Compound 37] | − | 21.2 ± 1.7% | 
CCO[C@]12C[C@H](OC)[C@@]3(OC(=O)c4ccc(Cl)s4)CC(C1[C@H]3OC(=O)c1ccc(OC)cc1)[C@]13C4[C@@H](OC)C2[C@H]1N(CC)C[C@]4(COC)CC[C@@H]3OC (some centres unmarked) [Compound 20] | − | 0% | 

From patent publication US20260022098A1, “BULLEYACONITINE A DERIVATIVE WITH ANALGESIC ACTIVITY, AND PREPARATION METHOD AND APPLICATION THEREOF” (priority 2023, published 2026)
